Data published in article PMC8143347, “Metabolism and Interspecies Variation of IMMH-010, a Programmed Cell Death Ligand 1 Inhibitor Prodrug” (Pharmaceutics, 2021).
Values belong to the molecule of their own block, whether it stands above or below them.

What was measured:
MC38 colon carcinoma = assay: Antitumor activity in MC38 colon carcinoma xenograft model; type: in vivo, mouse; conditions: MC38, CTX 40 mg/kg weekly, day 19
Experimental: (§1) The antitumor activity of IMMH-010 was evaluated by B16F10 melanoma and MC38 colon carcinoma xenograft models. The B16F10 and MC38 cells were resuspended in saline (1.5 × 10^6 cells/0.2 mL saline) and injected subcutaneously into the right flanks of each mouse on day 0. The treated mice received once-daily oral administration of IMMH-010 maleate (1.25, 2.5, 5, and 10 mg/kg, n = 10) by oral gavage (PO) for 19 consecutive days, whereas the control mice received vehicle (0.5% carboxymethyl cellulose, n = 10). The mice in the positive control group received the anti-mouse PD-L1 antibody (696618M2, Bio X Cell, West Lebanon, NH, USA) at 10 mg/kg intraperitoneally every 3 days (n = 10). The first-line antineoplastic drug cyclophosphamide (CTX) was administered at doses of 80 and 40 mg/kg weekly in the B16F10 and MC38 models (n = 10), respectively. After the last treatment, on day 19, the mice were sacrificed, and the tumor and spleen were stripped and weighed. The tumor growth inhibition (TGI) was calculated as TGI = (1 − treatment group tumor weight/vehicle group tumor weight) × 100.

[1] = Body weight in B16F10 model; conditions: B16F10, CTX 80 mg/kg weekly
Experimental: as §1

[2] = Body weight in MC38 model; conditions: MC38, CTX 40 mg/kg weekly
Experimental: as §1

B16F10 melanoma = assay: Antitumor activity in B16F10 melanoma xenograft model; type: in vivo, mouse; conditions: B16F10, CTX 80 mg/kg weekly, day 19
Experimental: as §1

[3] = Metabolism in human intestinal microsomes; type: in vitro ADME; conditions: NADPH-dependent
Experimental: (§2) To compare the differences in IMMH-010 metabolism between the liver and intestine, IMMH-010 (10 μM) was incubated with rat liver and intestinal S9 homogenate protein (1 mg protein/mL) and with human liver and intestinal microsomes (0.2 mg protein/mL) in a final volume of 0.2 mL Tris-HCl buffer (50 mM, pH 7.4) containing 5 mM MgCl2. The incubations were performed in duplicate in the presence and absence of an NADPH regenerating system. After 2 min preincubation at 37 °C, reactions were initiated by the addition of IMMH-010 (10 μM). Incubations were terminated by acetonitrile at 0, 10, and 20 min. IMMH-010, YPD-29B, M2, and M3 were quantified by LC-MS/MS assay. Midazolam (10 μM, a substrate of CYP3A4) was set as the positive control.

[4] = Identification of IMMH-010 metabolites in rat urine, bile and feces; type: in vivo; conditions: after oral IMMH-010 maleate 5 mg/kg
Experimental: After oral administration of IMMH-010 maleate (5 mg/kg), two rats were housed in metabolic cages to collect urine and feces samples for 24 h. Feces samples were homogenized with methanol at 1:10 (w/v) and urine samples were diluted 10-fold in methanol. Additionally, two rats were bile duct cannulated under isoflurane anesthesia. After oral administration of IMMH-010 maleate (5 mg/kg), bile samples were collected over 0–2 h after dosing.
LC-MS was performed using a Thermo Scientific Q Exactive HF hybrid quadrupole-Orbitrap mass spectrometer. Reverse-phase liquid chromatography was performed on a Zorbax C18 column (100 × 2.1 mm, 3.5 μm). Mobile phase A was 0.1% aqueous formic acid and mobile phase B was 0.1% formic acid in methanol. The mobile phase was delivered with the following gradient elution profile: 0 min, 10% B; 15 min, 40% B; 17–19 min, 100% B; 20–23 min, 10% B. The total runtime for each injection was 23 min. The flow rate was 0.3 mL/min, and the column oven was maintained at 30 °C.
The analysis was performed in full mass spectrometry with data-dependent tandem mass spectrometry (MS/dd-MS^2) mode. For a full mass spectrometry scan, the selected scan range was from m/z 100 to 500, the resolution was 70,000, and the automatic gain control (AGC) target was set to 1.0 × 10^6 with a maximum injection time (IT) of 100 ms. For the dd-MS^2 scan, the fragmentation mass spectra were recorded at a mass resolving power of 17,500 fwhm with a quadrupole isolation window of 1.5 m/z for precursor ions. The AGC target was 2.0 × 10^5 and the maximum IT was 50 ms.
Xcalibur 4.1 software (Thermo Fisher Scientific, San Jose, CA, USA) was used for instrument control and data processing. Compound Discover 2.0 software was used for metabolite identification.

[5] = test system: cDNA-expressed human CYPs and FMOs; assay: IMMH-010 metabolism by cDNA-expressed human CYPs and FMOs; type: in vitro ADME; conditions: IMMH-010 10 µM, 50 pmol enzyme, 30 min, NADPH
Experimental: cDNA-expressed human CYPs were also used to investigate the enzymes mediating IMMH-010 metabolism. IMMH-010 (10 µM) was incubated individually with 50 pmol of 10 individual cDNA-expressed human CYPs (CYP1A1, CYP1A2, CYP2A6, CYP2B6, CYP2C9, CYP2C19, CYP2D6, CYP2E1, CYP2J2, or CYP3A4) and three cDNA-expressed human FMO enzymes (FMO1, FMO3, and FMO5) at 37 °C for 30 min. An NADPH regeneration system was added to initiate the reactions. Probe substrates of the CYPs were used as the positive controls. Incubations without NADPH served as the negative controls. All reactions were carried out in a final volume of 0.2 mL Tris-HCl buffer (50 mM, pH 7.4) containing 5 mM MgCl2 and conducted in triplicate. All incubations were terminated by 2 volumes of acetonitrile. After centrifugation at 14,000 rpm for 5 min, the samples were analyzed by LC-MS/MS.

[6] = Metabolism in human liver microsomes; type: in vitro ADME; conditions: NADPH-dependent
Experimental: as §2

[7] = Metabolism in human liver S9 fractions; type: in vitro ADME; conditions: human, monkey, dog and rat liver S9 incubations of IMMH-010 10 μM
Experimental: IMMH-010 metabolism was compared in human, monkey, dog, and rat liver S9 homogenates. IMMH-010 (10 μM) was incubated with liver S9 homogenate protein (0.5 mg protein/mL) and a reduced nicotinamide adenine dinucleotide phosphate (NADPH) regenerating system in a final volume of 0.2 mL Tris-HCl buffer (50 mM, pH 7.4) containing 5 mM MgCl2. The reactions were performed in triplicate. After 2 min of preincubation at 37 °C, reactions were initiated by the addition of IMMH-010 (10 μM). The samples were collected 0, 5, 10, and 20 min after incubation, 2 volumes of acetonitrile were added to terminate the reaction. After vortexing and centrifugation, IMMH-010, YPD-29B, M3, and M4 in the supernatant were analyzed by LC-MS/MS.
(§3) All statistics were calculated using GraphPad Prism 8.0 software (San Diego, CA, USA) designed for one-way ANOVA. Pharmacokinetic parameters were calculated with a non-compartmental analysis using WinNonlin Version 6.3 (Pharsight, Mountain View, CA, USA). ADMET predictor V10.0 (Simulations Plus, Inc., Lancaster, CA, USA) and Microsoft Excel (Microsoft, Redmond, WA, USA) were used to process the data (i.e., half-life (t1/2) and hepatic clearance (CLhep) determination). Data were expressed as means ± standard deviations (SD). Results were considered statistically significant if the p-value <0.05, <0.01 and <0.001.

[8] = PK study in male cynomolgus monkeys; type: in vivo, cynomolgus monkey; conditions: single oral IMMH-010 maleate 5 mg/kg
Experimental: IMMH-010 maleate was suspended with 0.5% carboxymethyl cellulose to make a 1 mg/mL suspension for PO gavage. Four male cynomolgus monkeys received a single oral dose of IMMH-010 maleate (5 mg/kg). Serial blood samples were collected upto 48 h. The plasma was separated and the plasma concentrations of IMMH-010 and YPD-29B were determined by LC-MS/MS.
(§4) LC-MS/MS was performed using a triple quadrupole mass spectrometer (API 4000, AB Sciex, Framingham, MA, USA) with an ultra-performance liquid chromatography system (LC-30A, Shimadzu, Kyoto, Japan). Analyst 1.6.2 software (AB Sciex) was used for data acquisition and analysis. Mobile phase A was 1 mM ammonium acetate and mobile phase B was methanol. The mobile phase was delivered with the following gradient elution profile: 0–2.8 min, 70% B; 2.9 min, 85% B; 3 min, 90% B; 3.1–6.8 min, 100% B; 6.9–12 min, 70% B. The flow rate was 0.3 mL/min, and the column oven was maintained at 35 °C. The specific transitions monitored were 641.3 → 494.2 for IMMH-010, 597 → 155 for YPD-29B, 512 → 247 for M3, and 524 → 246 for M4.
as §3

[9] = Plasma and tumor PK in B16F10 melanoma xenograft mice; type: in vivo, mouse
Experimental: (§5) After the final dose, tumor and blood samples treated with IMMH-010 maleate (5 mg/kg) were collected over 72 h. Blood was exposed in an EP tube containing 500 mM NaF and 0.5% heparin sodium. Plasma samples were obtained by centrifugation, and tumor tissues were homogenized with 3 volumes (w/v) of saline on ice. The concentration of IMMH-010 and YPD-29B in plasma and tumor samples was quantitated by an LC-MS/MS method.
as §4, §3

[10] = Plasma and tumor PK in MC38 colon cancer xenograft mice; type: in vivo, mouse
Experimental: as §5, §4, §3

Structure (SMILES): O=P1(N(CCCl)CCCl)NCCCO1 (stereo not drawn) [CTX, cyclophosphamide, reference compound]
- Tumor Weight (g) X ± SD (MC38 colon carcinoma): 0.17 ± 0.10 g
- Tumor Weight TGI (%) (MC38 colon carcinoma): 90%
- Body Weight (g) X ± SD Finish ([1]; finish day 19): 19.2 ± 0.8 g
- Body Weight (g) X ± SD Start ([1]; start): 16.94 ± 0.43 g
- Body Weight (g) X ± SD Finish ([2]; finish day 19): 24.5 ± 0.9 g
- Body Weight (g) X ± SD Start ([2]; start): 22.0 ± 0.8 g
- Tumor Weight (g) X ± SD (B16F10 melanoma): 0.23 ± 0.18 g
- Tumor Weight TGI (%) (B16F10 melanoma): 90%

Structure (SMILES): O=C(O)[C@H](CO)NCc1cc(Cl)c(OCc2cccc(-c3ccccc3)c2Br)cc1OCc1cccnc1 [YPD-29B]
- AUC ([8]; cynomolgus monkey, plasma): 186 ng·h/mL
- Cmax ([8]; cynomolgus monkey, plasma): 35.5 ng/mL
- half-life ([8]; cynomolgus monkey, plasma, read-out: mean t1/2β in plasma (converted)): 9 h
- Tmax ([8]; cynomolgus monkey, plasma, read-out: observed time to peak concentration): ≤ 1.5 h
- molar AUC ratio of YPD-29B to IMMH-010 [8]: 4.17
- metabolite in rat feces and bile [4]: detected
- metabolite in rat urine ([4]; 24 h urine): found
- area under the plasma concentration versus time curve (AUC) ([9]; B16F10 mice, IMMH-010 maleate 5 mg/kg PO): ~69.9 ng·h/mL
- half-life ([9]; C57BL/6, mouse, plasma, B16F10 mice, IMMH-010 maleate 5 mg/kg PO, read-out: elimination half-life (t1/2β) in plasma (converted)): 1.61 h
- Tmax ([9]; C57BL/6, mouse, plasma, B16F10 mice, IMMH-010 maleate 5 mg/kg PO, read-out: mean time of peak plasma concentration (converted)): 0.25 h
- Cmax ([9]; C57BL/6, mouse, plasma, B16F10 mice, after last oral dose of IMMH-010 maleate 5 mg/kg for 19 days, read-out: mean peak concentration (Cmax) in plasma): 42.6 ng/mL
- Kp ([9]; C57BL/6, mouse, tumor and plasma, B16F10 mice, IMMH-010 maleate 5 mg/kg PO, read-out: tissue/plasma ratio (AUCtumor/AUCplasma)): 2.1
- half-life ([9]; C57BL/6, mouse, tumor, B16F10 mice, IMMH-010 maleate 5 mg/kg PO, read-out: t1/2β in tumor (converted)): 12.4 h
- Tmax ([9]; C57BL/6, mouse, tumor, B16F10 mice, IMMH-010 maleate 5 mg/kg PO, read-out: time of maximum concentration in the tumor): 0.25 to 1 h
- t1/2β in tumors relative to plasma ([9]; range over B16F10 and MC38 xenograft mice): 7.6–25 times
- half-life ([10]; C57BL/6, mouse, plasma, IMMH-010 maleate 5 mg/kg PO, read-out: elimination half-life (t1/2β) in plasma (converted)): 1.76 h
- Tmax ([10]; C57BL/6, mouse, plasma, IMMH-010 maleate 5 mg/kg PO, read-out: mean time of peak plasma concentration (converted)): 0.25 h
- Cmax ([10]; C57BL/6, mouse, plasma, after last oral dose of IMMH-010 maleate 5 mg/kg for 19 days, read-out: mean peak concentration (Cmax) in plasma): 64.4 ng/mL
- Kp ([10]; C57BL/6, mouse, tumor and plasma, IMMH-010 maleate 5 mg/kg PO, read-out: tissue/plasma ratio (AUCtumor/AUCplasma)): 2.4
- half-life ([10]; C57BL/6, mouse, tumor, IMMH-010 maleate 5 mg/kg PO, read-out: t1/2β in tumor (converted)): 45 h
- Tmax ([10]; C57BL/6, mouse, tumor, IMMH-010 maleate 5 mg/kg PO, read-out: time of maximum concentration in the tumor): 0.25 to 1 h
- area under the plasma concentration versus time curve (AUC) ([10]; IMMH-010 maleate 5 mg/kg PO): ~69.9 ng·h/mL

Now from value to molecule:

- transformation ratio of IMMH-010 to this metabolite [3]: < 2%
- metabolite in rat feces and bile [4]: detected
- enzyme with the highest metabolic activity for formation of the metabolite [5]: CYP2D6
- transformation ratio of IMMH-010 to this metabolite [6]: < 2%
Structure (SMILES): O=Cc1cc(Cl)c(OCc2cccc(-c3ccccc3)c2Br)cc1OCc1cccnc1 [M2]

- transformation ratio of IMMH-010 to this metabolite [3]: < 2%
- metabolite in rat feces and bile [4]: detected
- enzyme with the highest metabolic activity for formation of the metabolite [5]: CYP2D6
- amount of minor metabolite formed [7]: < 3%
- transformation ratio of IMMH-010 to this metabolite [6]: < 2%
Structure (SMILES): OCc1cc(Cl)c(OCc2cccc(-c3ccccc3)c2Br)cc1OCc1cccnc1 [M3]

- metabolite in rat feces and bile [4]: detected
- formation of the metabolite in CYP and FMO incubations [5]: not detected
- amount of minor metabolite formed [7]: < 3%
Structure (SMILES): O=C(O)c1cc(Cl)c(OCc2cccc(-c3ccccc3)c2Br)cc1OCc1cccnc1 [M4]
